Structures are written as SMILES. Read-outs that look alike come from different tables or passages of the source. Bounds are passed on as bounds.

The test system of one data set is CYP1A1 and CYP2C19. To be noted: Supersomes expressing human CYPs; cited from earlier work.
In data set [1] the target is dibenzo[def,p]chrysene (DBC) metabolism in human hepatic microsomes. Put plainly: Competitive inhibition of DBC metabolism in human hepatic microsomes. To be noted: substrate DBC 0.17 µM initial, human hepatic microsomes, apparent Ki, Equation (4); read-out: Inhibition constant (Ki) of competitive inhibitor to DBC metabolism. It is filed as in vitro ADME. On the procedure: (§1) Competitive inhibition of PAH metabolism was measured using conditions described above. […] Each experimental condition (e.g., substrate, concentration, time point, etc.) was conducted in triplicate.
(§2) Analytes were extracted from samples with liquid–liquid extraction and measured using high-performance liquid chromatography (HPLC). First, BaP, DBC, or retene was added as an internal standard depending on incubations conditions being tested. Samples were extracted using three 500 µL volumes of ethyl acetate. Extracts were dried under a gentle stream of nitrogen and resolubilized in 500 µL methanol. Analytes were quantified by reverse phase HPLC using an Agilent 1260 Infinity HPLC system equipped with an Agilent G4290B variable wavelength detector and an Agilent G1321B SPECTRA fluorescence detector (Santa Clara, CA, USA). […] Quantification was accomplished using a linear regression fit to an external calibration curve prepared in tandem with samples.
(§3) As with previous in vitro PAH metabolism studies conducted in our lab, metabolism rates were calculated based on substrate disappearance. […] Confidence intervals of metabolism rates were calculated using a nonparametric bootstrap, where metabolism rates were resampled with replacement at each concentration, and the regression was repeated on the resampled dataset (n = 1000). […]

The subject of data set [2] is DBC metabolism in human hepatic microsomes. The description is as above. Type of data set: in vitro ADME. To be noted: both sexes, human, pH 7.4. On the procedure: as §1, §2, §3
Another data set deals with CYP3A4. The conditions noted are these: Supersomes expressing human CYPs; cited from earlier work.
The nature of data set [3]: In vitro metabolism (substrate disappearance) in pooled human liver microsomes. To be noted: both sexes; for microsomal CLint: human, microsomes, pH 7.4, human hepatic microsomes. Type of data set: in vitro ADME. The protocol: (§4) Pooled human liver microsome samples were obtained from Sekisui Xenotech, LLC (Kansas City, KS, USA). Pooled samples contained contributions from 200 individuals having equal male:female ratio and predominantly from humans between 19 and 78 years of age (3 individuals 10–18 years old).
(§5) Briefly, within 500 µL total volume, reactions consisted of MgCl2 (3 mM), microsomes (2.0 mg/mL), 0.1 M phosphate buffer (pH 7.4), and excess NADPH (1.5 mM). Control samples using inactivated microsomes absent of NADPH were also included. Microsomes were preactivated via 37 °C incubation on a thermal shaker for 5 min. […] Samples were incubated at 37 °C for 0–30 min or 0–60 min, respectively. Reactions were quenched by adding 500 µL 0.9 M H2SO4, and samples were immediately placed on ice until extraction. A standard curve was prepared (0.015 µM–25.0 µM) in inactivated microsomes. An internal standard was added to each quenched sample (DBC for BaP kinetics reactions and BaP for DBC kinetics reactions). Experiments were performed in triplicate.
as §2, with “USA). Sample (10 µL) was injected into an Ascentis 25 cm × 4.6 mm, 5 µm C18 column (Sigma-Aldrich, St. Louis, MO, USA). A gradient of water and acetonitrile from 55:45 to 0:100 was employed from 0 to 10 min and then was held at 100% acetonitrile until 22 min at a flow rate of 0.95 mL/min. […] Excitation and emission wavelengths were 230 nm and 430 nm, respectively.” for “USA).”
(§6) As with previous in vitro PAH metabolism studies conducted in our lab, metabolism rates were calculated based on substrate disappearance. […] Confidence intervals of metabolism rates were calculated using a nonparametric bootstrap, where metabolism rates were resampled with replacement at each concentration, and the regression was repeated on the resampled dataset (n = 1000).
(§7) These two models include a Michaelis–Menten clearance equation for non-saturable high-capacity/low-affinity enzymes (Equation (2)) and a double Michaelis–Menten equation for saturable high-capacity/low-affinity enzymes (Equation (3)). Models were optimized using a maximum likelihood objective. The Bayesian information criterion (BIC) was used to judge the best-fit model for evaluating metabolism. For Michaelis–Menten kinetics, intrinsic clearance values (Clint) of the first order phase were estimated by dividing the Vmax by the respective Km. Fit parameter confidence intervals were calculated using a parametric bootstrap (n = 1000), where each best fit model was re-optimized to sampled metabolic rates assuming a normal distribution at each […]:(1) dS/dt=Vmax×S/Km+S (2) dS/dt=Vmax1×S/Km1+S+Clint2×S (3) dS/dt=Vmax1×S/Km1+S+Vmax2×S/Km2+S

In the next data set the test system is human hepatic microsomes. The data set is described as above. Type of data set: in vitro ADME. The conditions noted are these: human hepatic microsomes. On the procedure: as §4, §5
as §2, with “USA). Sample (10 µL) was injected into an Ascentis 25 cm × 4.6 mm, 5 µm C18 column (Sigma-Aldrich, St. Louis, MO, USA). A gradient of water and acetonitrile from 55:45 to 0:100 was employed from 0 to 10 min and then was held at 100% acetonitrile until 22 min at a flow rate of 0.95 mL/min. […] Excitation and emission wavelengths were 230 nm and 430 nm, respectively.” for “USA).”
as §6, §7

On the set-up of data set [4]: method as in PMID 34933053. To be noted: cited from earlier work.
For data set [5] the following is noted: cited from earlier work; for Carcinogenic (classifying agencies): classified as Suspected, Possible, Probable, or Confirmed carcinogen in animal models or humans by EPA, IARC or ACGIH.
Data set [6] concerns benzo[a]pyrene (BaP) metabolism in human hepatic microsomes. The data set is described as follows: Competitive inhibition of BaP metabolism in human hepatic microsomes. It is filed as in vitro ADME. On the procedure:
as §1, §2, §3

Where [7] appears, read: Michaelis-Menten clearance model fit, high-affinity/low-capacity enzyme.

Regarding `c1ccc2c(c1)cc1ccc3cccc4ccc2c1c34` [BaP, benzo[a]pyrene], the “Share of BaP-7,8-diol produced by CYP1A1 and CYP2C19” value in the data set with CYP1A1 and CYP2C19 is recorded as 96%. The Ki in [1] turned out to be 61 nM. Further, in data set [2], testing at 1 µM gave an inhibition of 62%. Moreover, the “Share of 3-hydroxy-BaP produced by CYP3A4” value in the data set with CYP3A4 is 53%. In addition, the microsomal CLint in data set [3] (first order phase, Vmax divided by Km, read-out: Clint 1) amounted to 72 µL/min/mg; in data set [3] (non-saturable low-affinity/high-capacity enzyme, read-out: Clint 2), 1.2 µL/min/mg. For the same compound, the Michaelis-Menten constant (Km) in [3] (pH 7.4, human hepatic microsomes, Michaelis-Menten clearance model fit, high-affinity/low-capacity enzyme, read-out: Km 1) turned out to be 0.088 µM. Also, the “Intrinsic clearance compared to that of DBC” value with human hepatic microsomes is reported as “nearly five-fold faster”. Moreover, the Vmax1 in the data set with human hepatic microsomes (setting [7]) turned out to be 0.0063 nmol/min/mg Micro. The “log Kow” value in data set [4] is reported as 6.13.

Consider `c1ccc2c(c1)cc1ccc3cccc4c5ccccc5c2c1c34` [DBC, dibenzo[def,p]chrysene], for which, in the data set with human hepatic microsomes, the “Rates of metabolism, times slower than rates of BaP metabolism” value was 3–5 times. For the same compound, the Vmax1 with human hepatic microsomes (setting [7]) was determined as 0.0009 nmol/min/mg Micro. The Km in the data set on human hepatic microsomes (Michaelis-Menten clearance model fit, high-affinity/low-capacity enzyme, read-out: Km 1) came out at 0.06 µM. The “Clint 1” value in the data set with human hepatic microsomes (first order phase, Vmax divided by Km) amounted to 0.015 mL/min. Moreover, the “Clint 2” value in the data set with human hepatic microsomes (non-saturable low-affinity/high-capacity enzyme) is reported as 0.0017 mL/min. For the same compound, the “Relative Potency Factor” value in [5] (cancer potency relative to BaP index compound) was 30. Further, the “log Kow” value in data set [4] is on record as 7.71. Moreover, in data set [6] (inhibitor ≥1 µM, 0.14 µM BaP initial substrate concentration), the “Inhibition of the rate of BaP metabolism” value is recorded as at least 48%. Further, the Ki in data set [6] (read-out: Inhibition constant (Ki) of competitive inhibitor to BaP metabolism, substrate BaP 0.14-0.18 µM initial, human hepatic microsomes, apparent Ki, Equation (4)) is 440 nM.

Regarding `c1ccc2cc3c(ccc4ccccc43)cc2c1` [benzo(a)anthracene], the “Carcinogenic (classifying agencies)” value in [5] is reported as “EPA, IARC, ACGIH”.

For the compound `c1ccc2c(c1)ccc1c3ccccc3ccc21` [chrysene], in data set [5], the “Carcinogenic (classifying agencies)” value is “EPA, ACGIH”.

As to `c1ccc2ccccc2c1` [naphthalene], the “Carcinogenic (classifying agencies)” value in data set [5] was “EPA, IARC, ACGIH”.

Values taken from publication PMC9323266, “Competitive Metabolism of Polycyclic Aromatic Hydrocarbons (PAHs): An Assessment Using In Vitro Metabolism and Physiologically Based Pharmacokinetic (PBPK) Modeling” (International Journal of Environmental Research and Public …, 2022).
